The results in this text go back to patent US8002883B2, “Amidoalkylamine-comprising azole compositions for protecting industrial materials” (LANXESS Deutschland GmbH, priority 2009, dated 2011).

Molecules are shown by their SMILES.

One assay has as its system Poria placenta. As to the kind of experiment: Agar hyphae growth test, minimum inhibitory concentration (MIC) and Kull synergism. The following applies: malt extract/peptone nutrient agar, 26° C., radial hyphae growth suppressed completely; read-out: MIC against Poria placenta. The format is cell-based. As to the method:
(§1) The synergism was determined by the method described by Kull et al. (F. C. Kull, P. C. Eismann, H. D. Sylvestrowicz, R. L. Mayer, Applied Microbiology 1961, 9, 538-541). Here, the following relations apply:
[formula] X=1 means additivity X>1 means antagonism X<1 means synergism Qa=concentration of substance A which is the MIC Qb=concentration of substance B which is the MIC QA=concentration of substance A in the concentration of A/B which suppresses the microbial growth QB=concentration of substance B in the concentration of A/B which suppresses the microbial growth Results:
Mycelium pieces were punched out of a colony of the wood-destroying fungus Poria placenta and incubated at 26° C. on a malt extract/peptone-containing nutrient agar. The hyphae growth with and without added active compound and/or additive was compared. The minimum inhibitory concentration (MIC) stated is the concentration at which the radial hyphae growth is suppressed completely.

In another assay the test system is Gloeophyllum trabeum. The description is as above. The format is cell-based. The following applies: 168 h, malt extract/peptone nutrient agar, 26° C., radial hyphae growth suppressed completely, about 1 week, read-out: MIC against Gloeophyllum trabeum. As to the method:
Mycelium pieces were punched out of a colony of the wood-destroying fungus Gloeophyllum trabeum and incubated at 26° C. on a malt extract/peptone-containing nutrient agar. The hyphae growth with and without added active compound and/or amidoalkylamine was compared. The minimum inhibitory concentration (MIC) stated is the concentration at which the radial hyphae growth is suppressed completely (incubation time: about 1 week depending on the fungal growth of the comparative sample without active compound).
as §1
[formula] X=1 means additivity X>1 means antagonism X<1 means synergism Qa=concentration of substance A which is the MIC Qb=concentration of substance B which is the MIC QA=concentration of substance A in the concentration of A/B which suppresses the microbial growth QB=concentration of substance B in the concentration of A/B which suppresses the microbial growth Results: […]

As a reminder, the MIC is the lowest concentration that inhibits growth of the organism.

In the case of `CCCC1COC(Cn2cncn2)(c2ccc(Cl)cc2Cl)O1` (stereo not drawn) [propiconazole], the MIC in the assay with Poria placenta stood at 0.5 µg/mL.
Turning to `CC(C)(C)C(O)(CCc1ccc(Cl)cc1)Cn1cncn1` (stereo not drawn) [tebuconazole], the minimum inhibitory concentration (MIC) with Gloeophyllum trabeum was found to be 0.5 µg/mL.
In the case of `CC(C)(C)C(=O)C(Oc1ccc(Cl)cc1)n1cncn1` (stereo not drawn) [triadimefon], the MIC with Poria placenta worked out at 3 µg/mL.
